Experimental data published in patent publication US20200011856A1, “Method for Determining the Effectiveness of Treatment for the Prevention of Heartworm Disease” (priority 2017, published 2020).
Values joined by “and” are separate entries in the source; they are usually repeats but may differ in a detail not shown here. Equal entries are not always repeated.

What was measured:
[1] = test system: Haemonchus contortus; experiment: Haemonchus contortus L3 infection of control and MPA-treated NSG mice, worm and egg recovery; format: in vivo
[2] = test system: Strongyloides stercoralis; experiment: Strongyloides stercoralis L3 infection of NSG mice with or without MPA, treatment, counts of adult worms, L1 and L3; details: 6 weeks post-injection; for Adult S. stercoralis recovery counts (individual mice) / Adult S. stercoralis recovery counts, mean / L1 S. stercoralis recovery counts (individual mice) / L1 S. stercoralis recovery counts, mean / L3 S. stercoralis recovery counts (individual mice) / L3 S. stercoralis recovery counts, mean: 5000 L3 s.c.; for Circulating L3: NSG mice, 5000 S. stercoralis L3 SC, with or without MPA
From the text: NSG mice infected by subcutaneous injection with 5000 S. stercoralis L3 larvae, either with or without MPA. […] Adult worms, L1 larvae, or L3 larvae were counted in the mice at 6 weeks post-injection.

[3] = test system: Dirofilaria immitis; experiment: D. immitis L3 infection of NSG mice (FR3 Missouri strain or strain not stated), treatment, recovery and count of worms at necropsy; format: in vivo; details: for % Rec / Survival / % Rec (percent of the original 50 Di recovered) / Survival (number of Di recovered from the mouse): individual mouse; for % Rec (percent of the original 50 Di recovered) / Survival (number of Di recovered from the mouse): 1 mg/kg
[4] = test system: Dirofilaria immitis (Merial worms, UC strain); experiment: D. immitis L3 infection of NSG mice with Merial worms / UC strain, treatment, recovery and count of worms; format: in vivo
[5] = NSG mice, 50 Di L3, 1x (1 mg/kg) at Day 30, recovery Days 41 to 43
[6] = NSG mice, 50 Di L3, 2x (1 mg/kg) at Days 1 and 30, recovery Days 41 to 43
[7] = NSG mice, 50 Di L3, 3x (1 mg/kg) at Days 1, 15, and 30, recovery Days 41 to 43
[8] = NSG mice, 50 Di L3 Day 0, 1 mg/kg EMO or 8800 on Days 30 and 60, recovery Days 83 and 84
[9] = NSG mice, 50 Di L3 Day 0, 1 mg/kg on Day 30, recovery Days 41 to 43
[10] = Table 9, NSG mice, 50 Di L3, 1 mg/kg on Days 1, 15, and 30, recovery Days 41 to 43
[11] = Table 9, group mean, NSG mice, 50 Di L3, 1 mg/kg on Days 1, 15, and 30, recovery Days 41 to 43
[12] = Table 11, NSG mice, 50 Di L3, 5 mg/kg on Days 1, 15, and 30, recovery Days 41 to 42
[13] = Table 11, group mean, NSG mice, 50 Di L3, 5 mg/kg on Days 1, 15, and 30, recovery Days 41 to 42
[14] = group mean, NSG mice, 50 Di L3, 1x (1 mg/kg) at Day 30, recovery Days 41 to 43
[15] = group mean, NSG mice, 50 Di L3 Day 0, 1 mg/kg EMO or 8800 on Days 30 and 60, recovery Days 83 and 84
[16] = group mean, NSG mice, 50 Di L3 Day 0, 1 mg/kg on Day 30, recovery Days 41 to 43
[17] = EMO 1 mg/kg Days 1, 15, 30, 50 Di L3 (UC Strain) per NSG mouse, recovery Days 41 to 43, group mean
[18] = EMO 1 mg/kg Days 1, 15, 30, 50 Di L3 (UC Strain) per NSG mouse, recovery Days 41 to 43, individual mice
[19] = group mean, NSG mice, 50 Di L3 Merial worms, 1 mg/kg on Days 1, 15, and 30, recovery Days 41 to 43
[20] = group mean, NSG mice, 50 Di L3 Merial worms, high dose 5 mg/kg on Days 1, 15, and 30, recovery Days 41 to 43
[21] = group mean, NSG mice, 50 Di L3 UC strain, High Dose 5 mg/kg on Days 1, 15, and 30, recovery Days 41 and 42
[22] = individual mouse, NSG mice, 50 Di L3 Merial worms, 1 mg/kg on Days 1, 15, and 30, recovery Days 41 to 43, 1 mg/kg
[23] = individual mouse, NSG mice, 50 Di L3 Merial worms, high dose 5 mg/kg on Days 1, 15, and 30, recovery Days 41 to 43, 5 mg/kg
[24] = individual mouse, NSG mice, 50 Di L3 UC strain, High Dose 5 mg/kg on Days 1, 15, and 30, recovery Days 41 and 42, 5 mg/kg
[25] = EMO Control: 2.5 mg/kg EMO days 1, 15, 30, without MPA
[26] = EMO/MPA: 2.5 mg/kg EMO days 1, 15, 30, with MPA (hyperinfection)
[27] = IVM Control: 3 mg/kg IVM days 1, 15, 30, without MPA
[28] = IVM/MPA: 3 mg/kg IVM days 1, 15, 30, with MPA (hyperinfection)

CC(=O)OCC(=O)[C@@]1(O)CC[C@H]2[C@@H]3C[C@H](C)C4=CC(=O)C=C[C@]4(C)[C@H]3[C@@H](O)C[C@@]21C [MPA, methylprednisolone acetate]
Hc Recovery, Average ([1]; MPA-treated NSG mice, 500 Hc L3 oral gavage, 14 Days PI): 10.5
Hc Recovery, Average ([1]; MPA-treated NSG mice, 500 Hc L3 oral gavage, 21 Days PI): 2
Hc Recovery, Average ([1]; MPA-treated NSG mice, 500 Hc L3 oral gavage, 28 Days PI): 0
Hc Recovery, Average ([1]; MPA-treated NSG mice, 500 Hc L3 oral gavage, 56 Days PI): 0
Hc Recovery, Average ([1]; MPA-treated NSG mice, 500 Hc L3 oral gavage, 7 days PI): 19.5
Hc Recovery (individual mice) ([1]; MPA-treated NSG mice, 1000 Hc L3 oral gavage, 14 Days PI): 15 and 1
Hc Recovery (individual mice) ([1]; MPA-treated NSG mice, 1000 Hc L3 oral gavage, 21 Days PI): 15 and 20
Hc Recovery (individual mice) ([1]; MPA-treated NSG mice, 1000 Hc L3 oral gavage, 28 Days PI): 0 and 1
Hc Recovery (individual mice) ([1]; MPA-treated NSG mice, 1000 Hc L3 oral gavage, 56 Days PI): 0
Hc Recovery, Average ([1]; MPA-treated NSG mice, 1000 Hc L3 oral gavage, 7 days PI): 36
# Eggs Found ([1]; in vivo): 2
Hc Recovery (individual mice) ([1]; in vivo, po): 19 and 2 and 0 and 36 and 3 and 24 and 48
Adult S. stercoralis recovery counts (individual mice) ([2]; MPA only (hyperinfection)): 888 and 235 and 34 and 437 and 581 and 447
Adult S. stercoralis recovery counts, mean ([2]; MPA only (hyperinfection)): 437
L1 S. stercoralis recovery counts (individual mice) ([2]; MPA only (hyperinfection)): 86 and 24 and 8456 and 9181 and 3464 and 670
L1 S. stercoralis recovery counts, mean ([2]; MPA only (hyperinfection)): 3647
L3 S. stercoralis recovery counts (individual mice) ([2]; MPA only (hyperinfection)): 275 and 31 and 2760 and 1766 and 632 and 1015
L3 S. stercoralis recovery counts, mean ([2]; MPA only (hyperinfection)): 1080

CC(C)C[C@H]1C(=O)O[C@H](Cc2ccc(N3CCOCC3)cc2)C(=O)N(C)[C@@H](CC(C)C)C(=O)O[C@H](C)C(=O)N(C)[C@@H](CC(C)C)C(=O)O[C@H](Cc2ccc(N3CCOCC3)cc2)C(=O)N(C)[C@@H](CC(C)C)C(=O)O[C@H](C)C(=O)N1C [EMO, emodepside]
HW parasite load (normalized percent larva recovery, FIG. 2) ([3]; NSG mice dosed orally with 1 mg/kg at Days 1, 15, and 30 post-infection, day 42/6 weeks): significantly reduced HW parasite load
% Red [3, 5]: 0%
% Red [3, 6]: 15%
% Red [3, 7]: 50%
% Red [3, 8]: 86%
% Red (percent reduction in percent of Di recovered compared to control) [3, 9]: 30%
% Red [3, 10]: 33%
Mean % Rec [3, 11]: 22%
Mean Survival [3, 11]: 11
% Rec [3, 10]: 26% and 24% (2×) and 16% (2×) and 20% and 22%
Survival [3, 10]: 13 and 12 (2×) and 8 (2×) and 10 and 11
% Red [3, 12]: 0%
Mean % Rec [3, 13]: 26%
Mean Survival [3, 13]: 13
% Rec [3, 12]: 22% (2×) and 28% and 36% and 34% and 14%
Survival [3, 12]: 11 (2×) and 14 and 18 and 17 and 7
Mean % Rec [3, 14]: 39%
Mean Survival [3, 14]: 19
Mean % Rec ([3]; group mean, NSG mice, 50 Di L3, 2x (1 mg/kg) at Days 1 and 30, recovery Days 41 to 43): 29%
Mean % Rec ([3]; group mean, NSG mice, 50 Di L3, 3x (1 mg/kg) at Days 1, 15, and 30, recovery Days 41 to 43): 17%
Mean % Rec [3, 15]: 2%
Mean Survival [3, 15]: 1
Mean % Rec [3, 16]: 28%
Mean Survival [3, 16]: 14
Mean Survival ([3]; in vivo): 14 and 9
% Rec [3, 5]: 36% and 28% (2×) and 46% (2×) and 42% and 44%
Survival [3, 5]: 18 and 14 (2×) and 23 (2×) and 21 and 22
% Rec [3, 6]: 28% and 26% (3×) and 30% and 42% and 22%
Survival [3, 6]: 14 and 13 (3×) and 15 and 21 and 11
% Rec [3, 7]: 28% (2×) and 14% and 22% and 4% and 6% and 20%
Survival [3, 7]: 14 (2×) and 7 and 11 and 2 and 3 and 10
% Rec (percent of the original 50 Di recovered) [3, 8]: 2% (3×) and 0% (3×) and 6% (2×)
Survival (number of Di recovered from the mouse) [3, 8]: 1 (3×) and 0 (3×) and 3 (2×)
% Rec (percent of the original 50 Di recovered) [3, 9]: 24% and 30% (2×) and 32% and 28% and 26%
Survival (number of Di recovered from the mouse) [3, 9]: 12 and 15 (2×) and 16 and 14 and 13
% Rec, Mean [4, 17]: 24%
Survival, Mean [4, 17]: 12
% Rec [4, 18]: 18% (2×) and 26% and 30% (2×) and 12% and 36%
Survival [4, 18]: 9 (2×) and 13 and 15 (2×) and 6 and 18
% Red ([4]; NSG mice, 50 Di L3 Merial worms, 1 mg/kg on Days 1, 15, and 30, recovery Days 41 to 43): 35%
% Red ([4]; NSG mice, 50 Di L3 Merial worms, high dose 5 mg/kg on Days 1, 15, and 30, recovery Days 41 to 43): 0%
% Red ([4]; NSG mice, 50 Di L3 UC strain, High Dose 5 mg/kg on Days 1, 15, and 30, recovery Days 41 and 42): 47%
Mean % Rec [4, 19]: 22%
Mean Survival [4, 19]: 11
Mean % Rec [4, 20]: 51%
Mean Survival [4, 20]: 25
Mean % Rec [4, 21]: 19%
Mean Survival [4, 21]: 10
% Red ([4]; in vivo): 37%
% Rec [4, 22]: 14% and 26% and 24% (2×) and 16% and 20% and 32% and 22%
Survival [4, 22]: 7 and 13 and 12 (2×) and 8 and 10 and 16 and 11
% Rec [4, 23]: 52% and 68% and 48% (4×) and 56% and 36%
Survival [4, 23]: 26 and 34 and 24 (4×) and 28 and 18
% Rec [4, 24]: 20% (3×) and 22% (2×) and 18% and 14%
Survival [4, 24]: 10 (3×) and 11 (2×) and 9 and 7
Adult S. stercoralis recovery counts (individual mice) [2, 25]: 0 (4×) and 1
Adult S. stercoralis recovery counts, mean [2, 25]: 0.2
L1 S. stercoralis recovery counts (individual mice) [2, 25]: 0
L1 S. stercoralis recovery counts, mean [2, 25]: 0
L3 S. stercoralis recovery counts (individual mice) [2, 25]: 5 (2×) and 8 and 0 and 1
L3 S. stercoralis recovery counts, mean [2, 25]: 4
Adult S. stercoralis recovery counts (individual mice) [2, 26]: 0
Adult S. stercoralis recovery counts, mean [2, 26]: 0
L1 S. stercoralis recovery counts (individual mice) [2, 26]: 0
L1 S. stercoralis recovery counts, mean [2, 26]: 0
L3 S. stercoralis recovery counts (individual mice) [2, 26]: 4 and 123 and 228 and 102 and 130 and 39 and 18
L3 S. stercoralis recovery counts, mean [2, 26]: 92
Circulating L3 ([2]; 2.5 mg/kg on days 1, 15, and 30): reduced the circulating L3

CC[C@H](C)[C@H]1O[C@]2(CC[C@@H]1C)C[C@@H]1C[C@@H](C/C=C(\C)[C@@H](O[C@H]3C[C@H](OC)[C@@H](O[C@H]4C[C@H](OC)[C@@H](O)[C@H](C)O4)[C@H](C)O3)[C@@H](C)/C=C/C=C3\CO[C@@H]4[C@H](O)C(C)=C[C@@H](C(=O)O1)[C@]34O)O2 [IVM, ivermectin]
% Rec, Mean ([3]; in vivo): 1% and 4% and 2%
Mean % Rec ([3]; in vivo): 6%
Mean Survival ([3]; in vivo): 3
HW parasite load (normalized percent larva recovery, FIG. 2) ([3]; in vivo, po, 3 mg/kg): significantly reduced HW parasite load
% Red ([4]; in vivo, 3 mg/kg): 47%
Mean % Rec ([4]; in vivo, 3 mg/kg): 18%
Mean Survival ([4]; in vivo, 3 mg/kg): 9
Adult S. stercoralis recovery counts (individual mice) [2, 27]: 0
Adult S. stercoralis recovery counts, mean [2, 27]: 0
L1 S. stercoralis recovery counts (individual mice) [2, 27]: 0
L1 S. stercoralis recovery counts, mean [2, 27]: 0
L3 S. stercoralis recovery counts (individual mice) [2, 27]: 6 and 9 and 26 and 210 and 2
L3 S. stercoralis recovery counts, mean [2, 27]: 51
Adult S. stercoralis recovery counts (individual mice) [2, 28]: 0
Adult S. stercoralis recovery counts, mean [2, 28]: 0
L1 S. stercoralis recovery counts (individual mice) [2, 28]: 0
L1 S. stercoralis recovery counts, mean [2, 28]: 0
L3 S. stercoralis recovery counts (individual mice) [2, 28]: 19 and 24 and 4 and 13 and 25 and 16 and 40 and 38
L3 S. stercoralis recovery counts, mean [2, 28]: 22
Circulating L3 ([2]; 3 mg/kg on days 1, 15, and 30): reduced the circulating L3
